From patent publication US11001590B2, “Pyrazolopyrimidine derivatives” (BAYER ANIMAL HEALTH GMBH, priority 2016, dated 2021)

Tests used:
[1] = log P by HPLC on reversed phase columns (Method L0; [a] acidic, [b] neutral range); conditions: HPLC on reversed phase columns, Method L0, [a] acidic range
Method: Calibration was done with straight-chain alkan-2-ones (with 3 to 16 carbon atoms) with known log P values (measurement of log P values using retention times with linear interpolation between successive alkanones). Lambda-max-values were determined using UV-spectra from 200 nm to 400 nm and the peak values of the chromatographic signals.

C. elegans Slo-1a = C. elegans Slo-1a (Caenorhabditis elegans, UniProt Q95V25); assay: In vitro assay 1: C. elegans Slo-1a, action at a recombinant C. elegans CHO cell line (membrane potential measurement); conditions: CHO cells expressing C. elegans Slo-1a; voltage sensitive dye, FLIPR Tetra; negative decadic logarithm of EC50
Chain of C. elegans Slo-1a (Q95V25 whole entry): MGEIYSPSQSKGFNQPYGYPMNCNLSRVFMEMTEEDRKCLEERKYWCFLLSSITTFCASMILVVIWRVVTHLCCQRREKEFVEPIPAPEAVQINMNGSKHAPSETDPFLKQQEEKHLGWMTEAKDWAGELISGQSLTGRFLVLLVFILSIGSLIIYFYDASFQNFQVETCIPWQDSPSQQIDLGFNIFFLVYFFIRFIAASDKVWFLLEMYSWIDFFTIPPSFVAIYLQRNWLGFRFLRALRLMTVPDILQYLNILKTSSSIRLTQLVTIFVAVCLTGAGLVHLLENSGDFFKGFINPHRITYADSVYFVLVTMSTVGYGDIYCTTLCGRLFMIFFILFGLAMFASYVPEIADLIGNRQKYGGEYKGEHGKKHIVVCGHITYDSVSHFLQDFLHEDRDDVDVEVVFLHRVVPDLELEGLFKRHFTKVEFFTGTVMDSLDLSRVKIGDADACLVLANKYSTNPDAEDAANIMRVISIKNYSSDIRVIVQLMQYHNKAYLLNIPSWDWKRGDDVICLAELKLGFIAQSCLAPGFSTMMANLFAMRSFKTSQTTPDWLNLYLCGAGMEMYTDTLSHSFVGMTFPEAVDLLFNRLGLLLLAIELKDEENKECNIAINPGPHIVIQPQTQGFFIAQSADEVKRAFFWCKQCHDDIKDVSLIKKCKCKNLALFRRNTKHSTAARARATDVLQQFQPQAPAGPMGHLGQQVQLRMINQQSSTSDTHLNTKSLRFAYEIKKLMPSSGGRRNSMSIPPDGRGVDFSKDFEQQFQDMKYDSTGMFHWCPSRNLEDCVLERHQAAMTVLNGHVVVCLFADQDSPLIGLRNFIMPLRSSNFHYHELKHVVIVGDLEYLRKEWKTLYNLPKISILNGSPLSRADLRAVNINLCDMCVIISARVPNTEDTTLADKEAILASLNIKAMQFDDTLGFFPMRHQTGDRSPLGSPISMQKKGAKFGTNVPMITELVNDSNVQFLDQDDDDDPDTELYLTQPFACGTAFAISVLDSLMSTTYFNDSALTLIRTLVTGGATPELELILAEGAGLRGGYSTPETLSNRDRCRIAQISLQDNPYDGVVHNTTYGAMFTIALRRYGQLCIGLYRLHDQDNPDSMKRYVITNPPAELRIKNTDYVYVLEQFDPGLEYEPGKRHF

Structure (SMILES) | logP (Method L0) [a] [1] | pE50 (C. elegans Slo-1a)
Cc1c(C(=O)N[C@H]2CCCc3ccccc32)cnc2c(-c3cccc(Cl)c3)cnn12 [Example 44] | 4.33 | 
O=C(N[C@H]1CCc2ccccc21)c1cnc2c(-c3cc(Cl)cc(Cl)c3)cnn2c1 [Example 47] | 4.74 | 
CC(C)c1c(C(=O)N[C@H]2CCc3ccccc32)cnc2c(-c3ccc(Cl)cc3)c(C(F)(F)F)nn12 [Example 49] | 5.48 | 
O=C(N[C@H]1CCc2ccccc21)c1cnc2c(-c3cccc(Cl)c3)c(C(F)(F)F)nn2c1 [Example 50] | 4.57 | 
CC(C)c1c(C(=O)N[C@H]2CCCc3ccccc32)cnc2c(-c3cccc(Cl)c3)c(C(F)(F)F)nn12 [Example 51] | 5.74 | 
Cc1c(C(=O)N[C@H]2CCc3ccccc32)cnc2c(-c3cccc(Cl)c3)cnn12 [Example 52] | 4.04 | 
Cc1c(C(=O)N[C@H]2CCCc3ccccc32)cnc2c(-c3ccc(Cl)cc3)c(C(F)(F)F)nn12 [Example 53] | 4.97 | 
CC(C)c1c(C(=O)N[C@H]2CCCc3ccccc32)cnc2c(-c3ccc(Cl)cc3)c(C(F)(F)F)nn12 [Example 54] | 5.76 | 
Cc1c(C(=O)N[C@H]2CCc3ccccc32)cnc2c(-c3cccc(Cl)c3)c(C(F)(F)F)nn12 [Example 55] | 4.68 | 
Cc1c(C(=O)N[C@H]2CCc3ccccc32)cnc2c(-c3ccc(Cl)cc3)c(C(F)(F)F)nn12 [Example 57] | 4.7 | 
Cc1c(C(=O)N[C@H]2CCCc3ccccc32)cnc2c(-c3cccc(Cl)c3)c(Cl)nn12 [Example 58] | 4.9 | 
CC(C)c1c(C(=O)N[C@H]2CCCc3ccccc32)cnc2c(-c3cc(Cl)cc(Cl)c3)c(Cl)nn12 [Example 64] | 6.69 | 
Cc1c(C(=O)N[C@H]2CCc3ccccc32)cnc2c(-c3cc(Cl)cc(Cl)c3)cnn12 [Example 65] | 4.84 | 
CC(C)c1c(C(=O)N[C@H]2CCOc3ccccc32)cnc2c(-c3ccc(F)c(F)c3)c(C(F)F)nn12 [Example 278] |  | 7.5
CC(C)c1c(C(=O)N[C@H]2CCOc3ccccc32)cnc2c(-c3cccc(F)c3F)c(C(F)F)nn12 [Example 279] |  | 8.2
O=C(N[C@H]1CCOc2ccccc21)c1cnc2c(-c3c(F)ccc(Cl)c3F)c(C(F)F)nn2c1C1CC1 [Example 280] |  | 8.9
CC(C)c1c(C(=O)N[C@H]2CCOc3ccccc32)cnc2c(-c3cc(Cl)c(F)c(Cl)c3)c(C(F)F)nn12 [Example 282] |  | 8.3
Cc1nn2c(C(C)C)c(C(=O)N[C@H]3CCOc4ccccc43)cnc2c1-c1ccc(F)c(N(C)C)c1F [Example 283] |  | 9.3
COc1c(F)ccc(-c2c(C)nn3c(C4CC4)c(C(=O)N[C@H]4CCOc5ccccc54)cnc23)c1F [Example 284] |  | 9.1
CC(C)c1c(C(=O)N[C@H]2CCc3ccccc32)cnc2c(-c3cccc(F)c3F)c(Cl)nn12 [Example 285] |  | 8
CC(C)c1c(C(=O)N[C@H]2CCCc3ccccc32)cnc2c(-c3cccc(F)c3F)c(Cl)nn12 [Example 286] |  | 7.9
CCc1c(C(=O)N[C@H]2CCOc3ccccc32)cnc2c(-c3cccc(F)c3F)c(C)nn12 [Example 477] |  | 8.2
CCc1c(C(=O)N[C@H]2CCOc3ccccc32)cnc2c(-c3c(F)cccc3Cl)c(C)nn12 [Example 479] |  | 8.2

Structure (SMILES) | logP (Method L0) [a] [1] | pE50 (C. elegans Slo-1a)
Cc1nn2c(C3CC3)c(C(=O)N[C@H]3CCOc4ccccc43)cnc2c1-c1cccc(Cl)c1F [Example 480] |  | 8.9
Cc1nn2c(C(C)C)c(C(=O)N[C@H]3CCOc4ccccc43)cnc2c1-c1cccc2[nH]ccc12 [Example 481] |  | 7.7
COc1c(F)cc(F)c(-c2c(C)nn3c(C4CC4)c(C(=O)N[C@H]4CCOc5ccccc54)cnc23)c1F [Example 482] |  | 9.2
Cc1nn2c(C(C)C)c(C(=O)N[C@H]3CCOc4ccccc43)cnc2c1-c1cccc2c1ccn2C [Example 483] |  | 7.8
CCc1c(C(=O)N[C@H]2CCOc3ccccc32)cnc2c(-c3cccc(Cl)c3Cl)c(C)nn12 [Example 484] |  | 8.6
CCc1c(C(=O)N[C@H]2CCOc3ccccc32)cnc2c(-c3ccc(Cl)cc3Cl)c(C)nn12 [Example 485] |  | 8.2
CCc1c(C(=O)N[C@H]2CCOc3ccccc32)cnc2c(-c3cc(Cl)ccc3Cl)c(C)nn12 [Example 486] |  | 8.4
CCc1c(C(=O)N[C@H]2CCOc3ccccc32)cnc2c(-c3ccc(F)c(F)c3)c(C)nn12 [Example 487] |  | 7.7
CCc1c(C(=O)N[C@H]2CCOc3ccccc32)cnc2c(-c3cccc(Cl)c3)c(C)nn12 [Example 488] |  | 8.2
CCc1c(C(=O)N[C@H]2CCOc3ccccc32)cnc2c(-c3ccc(F)c(F)c3F)c(C)nn12 [Example 490] |  | 8.3
CCc1c(C(=O)N[C@H]2CCOc3ccccc32)cnc2c(-c3c(Cl)cccc3Cl)c(C)nn12 [Example 491] |  | 8.3
O=C(N[C@H]1CCOc2ccccc21)c1cnc2c(-c3cc(Cl)ccc3Cl)c(C(F)F)nn2c1C1CC1 [Example 492] |  | 8.9
O=C(N[C@H]1CCOc2ccccc21)c1cnc2c(-c3c(F)cccc3F)c(C(F)F)nn2c1C1CC1 [Example 493] |  | 8.7
CC(C)c1c(C(=O)N[C@H]2CCOc3ccccc32)cnc2c(-c3cc(Cl)ccc3Cl)c(C(F)F)nn12 [Example 494] |  | 8.5
CC(C)c1c(C(=O)N[C@H]2CCOc3ccccc32)cnc2c(-c3c(F)cccc3F)c(C(F)F)nn12 [Example 495] |  | 8.3
CCc1c(C(=O)N[C@H]2CCOc3ccccc32)cnc2c(-c3ccc(F)c(OC)c3F)c(C)nn12 [Example 496] |  | 8.9
CCc1c(C(=O)N[C@H]2CCOc3ccccc32)cnc2c(-c3cc(Cl)c(F)c(Cl)c3)c(C)nn12 [Example 497] |  | 8
O=C(N[C@H]1CCOc2ccccc21)c1cnc2c(-c3ccc(F)c(F)c3F)c(C(F)F)nn2c1C1CC1 [Example 498] |  | 8.3
O=C(N[C@H]1CCOc2ccccc21)c1cnc2c(-c3c(F)cccc3Cl)c(C(F)F)nn2c1C1CC1 [Example 499] |  | 8.5
CC(C)c1c(C(=O)N[C@H]2CCOc3ccccc32)cnc2c(-c3ccc(F)c(F)c3)c(Cl)nn12 [Example 500] |  | 7.7
Cc1nn2c(C3CC3)c(C(=O)N[C@H]3CCOc4ccccc43)cnc2c1-c1cccc(O)c1 [Example 501] |  | 6.3
COc1c(F)ccc(-c2c(C(F)F)nn3c(C(C)C)c(C(=O)N[C@H]4CCOc5ccccc54)cnc23)c1F [Example 502] |  | 8.6
CC(C)c1c(C(=O)N[C@H]2CCOc3ccccc32)cnc2c(-c3c(Cl)cccc3Cl)c(C(F)F)nn12 [Example 503] |  | 7.9

Structure (SMILES) | logP (Method L0) [a] [1] | pE50 (C. elegans Slo-1a)
Cc1nn2c(C3CC3)c(C(=O)N[C@H]3CCOc4ccccc43)cnc2c1-c1cc(C(F)(F)F)ccc1F [Example 504] |  | 8.9
CC(C)c1c(C(=O)N[C@H]2CCOc3ccccc32)cnc2c(-c3cccc(Cl)c3Cl)c(C(F)F)nn12 [Example 505] |  | 8.5
CC(C)c1c(C(=O)N[C@H]2CCOc3ccccc32)cnc2c(-c3c(F)cccc3Cl)c(C(F)F)nn12 [Example 506] |  | 8.1
CC(C)c1c(C(=O)N[C@H]2CCOc3ccccc32)cnc2c(-c3ccc(Cl)cc3Cl)c(C(F)F)nn12 [Example 507] |  | 8.1
CC(C)c1c(C(=O)N[C@H]2CCOc3ccccc32)cnc2c(-c3ccc(F)c(F)c3F)c(C(F)F)nn12 [Example 508] |  | 8.2
Cc1nn2c(C3CC3)c(C(=O)N[C@H]3CCOc4ccccc43)cnc2c1-c1cc(C(F)(F)F)ccc1Cl [Example 509] |  | 8.9
Cc1nn2c(C3CC3)c(C(=O)N[C@H]3CCOc4ccccc43)cnc2c1-c1cccc2c1CCO2 [Example 510] |  | 8.6
O=C(N[C@H]1CCOc2ccccc21)c1cnc2c(-c3ccc(Cl)cc3Cl)c(C(F)F)nn2c1C1CC1 [Example 511] |  | 8.4
O=C(N[C@H]1CCOc2ccccc21)c1cnc2c(-c3cccc(Cl)c3Cl)c(C(F)F)nn2c1C1CC1 [Example 512] |  | 8.9
Cc1nn2c(N3CCOCC3)c(C(=O)N[C@H]3CCOc4ccccc43)cnc2c1-c1ccc(F)c(N(C)C)c1F [Example 543] |  | 8.6
Cc1nn2c(N3CCOCC3)c(C(=O)N[C@H]3CCOc4ccccc43)cnc2c1-c1c(Cl)cccc1Cl [Example 544] |  | 8.3
Cc1nn2c(N3CCOCC3)c(C(=O)N[C@H]3CCOc4ccccc43)cnc2c1-c1c(F)ccc(Cl)c1F [Example 545] |  | 8.8
Cc1nn2c(N(C)C)c(C(=O)N[C@H]3CCOc4ccccc43)cnc2c1-c1cc(C(F)(F)F)ccc1F [Example 547] |  | 8.9
Cc1nn2c(N(C)C)c(C(=O)N[C@H]3CCOc4ccccc43)cnc2c1-c1cccc(F)c1F [Example 549] |  | 8.4
Cc1nn2c(N(C)C)c(C(=O)N[C@H]3CCOc4ccccc43)cnc2c1-c1ccc(F)c(N(C)C)c1F [Example 550] |  | 8.7
COc1c(F)ccc(-c2c(C)nn3c(N(C)C)c(C(=O)N[C@H]4CCOc5ccccc54)cnc23)c1F [Example 551] |  | 8.9
Cc1nn2c(N(C)C)c(C(=O)N[C@H]3CCOc4ccccc43)cnc2c1-c1cccc(Cl)c1F [Example 552] |  | 8.7
Cc1ccccc1-c1c(C)nn2c(N(C)C)c(C(=O)N[C@H]3CCOc4ccccc43)cnc12 [Example 553] |  | 8.2
Cc1nn2c(N(C)C)c(C(=O)N[C@H]3CCOc4ccccc43)cnc2c1-c1c(F)ccc(F)c1F [Example 554] |  | 8.7
Cc1nn2c(N(C)C3CC3)c(C(=O)N[C@H]3CCOc4ccccc43)cnc2c1-c1cc(Cl)cc(Cl)c1 [Example 555] |  | 7.6
Cc1nn2c(N(C)CCN3CCCC3=O)c(C(=O)N[C@H]3CCOc4ccccc43)cnc2c1-c1cc(Cl)cc(Cl)c1 [Example 560] |  | 8.2
COCCOCCOCCN(C)c1c(C(=O)N[C@H]2CCOc3ccccc32)cnc2c(-c3cc(Cl)cc(Cl)c3)c(C)nn12 [Example 561] |  | 8.2
